We go through 15 compounds from ChEMBL document CHEMBL1136385, “Synthesis and pharmacological activity of fluorescent histamine H2 receptor antagonists related to potentidine” (Bioorg Med Chem Lett, 2003).

The target of the experiment is Histamine H2 receptor (Cavia porcellus, UniProt P47747). As to the kind of experiment: Histamine H2 receptor antagonistic activity on the isolated spontaneously beating guinea pig right atrium. It is filed as functional, tissue-based, Cardiac atrium. To be noted: read-out: pA2 (converted).
Histamine H2 receptor, sequence (P47747 whole entry): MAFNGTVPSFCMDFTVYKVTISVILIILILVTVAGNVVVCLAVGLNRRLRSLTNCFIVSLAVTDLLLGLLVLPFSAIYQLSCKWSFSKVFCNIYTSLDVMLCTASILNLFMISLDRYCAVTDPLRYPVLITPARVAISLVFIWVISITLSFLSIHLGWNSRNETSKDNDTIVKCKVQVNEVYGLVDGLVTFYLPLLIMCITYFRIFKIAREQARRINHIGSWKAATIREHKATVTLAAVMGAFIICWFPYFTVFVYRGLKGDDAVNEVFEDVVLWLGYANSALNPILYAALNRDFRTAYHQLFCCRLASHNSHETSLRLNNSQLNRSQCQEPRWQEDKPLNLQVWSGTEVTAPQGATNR
Consider `N#CN/C(=N\CCNC(=O)c1ccc(C(=O)O)c(C2c3ccc(O)cc3OC3=CC(=O)C=CC32)c1)NCCCOc1cccc(CN2CCCCC2)c1` (stereo not given), for which the Kb was 44700 nM. The result for `CN(C)c1cccc2c(S(=O)(=O)NCC/N=C(\NC#N)NCCCOc3cccc(CN4CCCCC4)c3)cccc12` reads 1950 nM; that for `N#CN/C(=N\CCCCNC(=O)c1ccc(C2c3ccc(O)cc3OC3=CC(=O)C=CC32)c(C(=O)O)c1)NCCCOc1cccc(CN2CCCCC2)c1` (stereo not given), 8910 nM; that for `N#CN/C(=N\CCN)NCCCOc1cccc(CN2CCCCC2)c1`, 1100 nM.

Regarding `CC(=O)OCC(=O)NCCCOc1cccc(CN2CCCCC2)c1` [ROXATIDINE ACETATE], the Kb was 38.9 nM. The result for `N#CN=C(NCCCCCCCCNc1ccc([N+](=O)[O-])c2n[o+][n-]c12)NCCCOc1cccc(CN2CCCCC2)c1` reads 11 nM; that for `N#CN/C(=N\CCNC(=O)CCCCCNc1ccc([N+](=O)[O-])c2nonc12)NCCCOc1cccc(CN2CCCCC2)c1`, 25.7 nM. For `N#CN/C(=N\CCCCNC(=O)c1ccc(C(=O)O)c(C2c3ccc(O)cc3OC3=CC(=O)C=CC32)c1)NCCCOc1cccc(CN2CCCCC2)c1` (stereo not given), the Kb was 10000 nM.

Consider `NC(N)=Nc1nc(CSCCC(N)=NS(N)(=O)=O)cs1` [FAMOTIDINE], for which the Kb is 18.2 nM.

For `CC(=O)c1ccc2n(c1=O)[C@H](COC(=O)CCC(=O)NCCCOc1cccc(CN3CCCCC3)c1)Cc1c-2[nH]c2ccccc12`, the Kb was 1820 nM. The result for `CN/C(=C/[N+](=O)[O-])NCCSCc1ccc(CN(C)C)o1` [RANITIDINE] reads 170 nM. The result for `N#CN/C(=N\CCCNc1ccc([N+](=O)[O-])c2nonc12)NCCCOc1cccc(CN2CCCCC2)c1` reads 37.2 nM. The result for `N#CN/C(=N\CCCCCCNc1ccc([N+](=O)[O-])c2nonc12)NCCCOc1cccc(CN2CCCCC2)c1` reads 32.4 nM; that for `N#CN/C(=N\CCNC(=O)c1ccc(C2c3ccc(O)cc3OC3=CC(=O)C=CC32)c(C(=O)O)c1)NCCCOc1cccc(CN2CCCCC2)c1` (stereo not given), 66100 nM; that for `N#CN/C(=N\CCNC(=O)c1c2ccccc2nc2ccccc12)NCCCOc1cccc(CN2CCCCC2)c1`, 182 nM.
